# Assay results: the NIST ThermoML archive (doi:10.1021/je060288t)
# Numbers after ± are expanded uncertainties.
# Tests used:
# [1] = xn = mol fraction of the nth substance listed; conditions: 101 kPa, Liquid; for viscosity: Capillary tube (Ostwald / Ubbelohde) method; for mass density: Pycnometric method
# [2] = 101 kPa, Liquid; for viscosity: Capillary tube (Ostwald / Ubbelohde) method; for mass density: Pycnometric method
smiles,measurement,setting,value
C=C(C)C(=O)O [2-methyl-2-propenoic acid] + COCC(C)O,viscosity,"[1]; 298.15 K, x2 = 0",1.267 ± 0.027 mPa·s
same,viscosity,"[1]; 298.15 K, x2 = 0.1",1.376 ± 0.03 mPa·s
same,viscosity,"[1]; 298.15 K, x2 = 0.2",1.659 ± 0.036 mPa·s
same,viscosity,"[1]; 298.15 K, x2 = 0.3",1.982 ± 0.043 mPa·s
same,viscosity,"[1]; 298.15 K, x2 = 0.4",2.124 ± 0.046 mPa·s
same,viscosity,"[1]; 298.15 K, x2 = 0.5",2.233 ± 0.048 mPa·s
same,viscosity,"[1]; 298.15 K, x2 = 0.6",2.255 ± 0.049 mPa·s
same,viscosity,"[1]; 298.15 K, x2 = 0.7",2.14 ± 0.046 mPa·s
same,viscosity,"[1]; 298.15 K, x2 = 0.8",1.969 ± 0.043 mPa·s
same,viscosity,"[1]; 298.15 K, x2 = 0.9",1.809 ± 0.039 mPa·s
same,mass density,"[1]; 298.15 K, x2 = 0",1009.5 ± 2.1 kg/m3
same,mass density,"[1]; 298.15 K, x2 = 0.1",1000.9 ± 2 kg/m3
same,mass density,"[1]; 298.15 K, x2 = 0.2",992 ± 2 kg/m3
same,mass density,"[1]; 298.15 K, x2 = 0.3",983.5 ± 2 kg/m3
same,mass density,"[1]; 298.15 K, x2 = 0.4",975.3 ± 2 kg/m3
same,mass density,"[1]; 298.15 K, x2 = 0.5",966.6 ± 2 kg/m3
same,mass density,"[1]; 298.15 K, x2 = 0.6",957.5 ± 2 kg/m3
same,mass density,"[1]; 298.15 K, x2 = 0.7",947.3 ± 1.9 kg/m3
same,mass density,"[1]; 298.15 K, x2 = 0.8",936.9 ± 1.9 kg/m3
same,mass density,"[1]; 298.15 K, x2 = 0.9",926.2 ± 1.9 kg/m3
same,viscosity,"[1]; 308.15 K, x2 = 0",1.078 ± 0.023 mPa·s
same,viscosity,"[1]; 308.15 K, x2 = 0.1",1.163 ± 0.025 mPa·s
same,viscosity,"[1]; 308.15 K, x2 = 0.2",1.372 ± 0.03 mPa·s
same,viscosity,"[1]; 308.15 K, x2 = 0.3",1.577 ± 0.034 mPa·s
same,viscosity,"[1]; 308.15 K, x2 = 0.4",1.702 ± 0.037 mPa·s
same,viscosity,"[1]; 308.15 K, x2 = 0.5",1.762 ± 0.038 mPa·s
same,viscosity,"[1]; 308.15 K, x2 = 0.6",1.77 ± 0.039 mPa·s
same,viscosity,"[1]; 308.15 K, x2 = 0.7",1.685 ± 0.037 mPa·s
same,viscosity,"[1]; 308.15 K, x2 = 0.8",1.554 ± 0.034 mPa·s
same,viscosity,"[1]; 308.15 K, x2 = 0.9",1.431 ± 0.031 mPa·s
same,mass density,"[1]; 308.15 K, x2 = 0",999.4 ± 2 kg/m3
same,mass density,"[1]; 308.15 K, x2 = 0.1",991.8 ± 2 kg/m3
same,mass density,"[1]; 308.15 K, x2 = 0.2",983.2 ± 2 kg/m3
same,mass density,"[1]; 308.15 K, x2 = 0.3",974.9 ± 2 kg/m3
same,mass density,"[1]; 308.15 K, x2 = 0.4",966.5 ± 2 kg/m3
same,mass density,"[1]; 308.15 K, x2 = 0.5",957.8 ± 2 kg/m3
same,mass density,"[1]; 308.15 K, x2 = 0.6",948.7 ± 1.9 kg/m3
same,mass density,"[1]; 308.15 K, x2 = 0.7",938.6 ± 1.9 kg/m3
same,mass density,"[1]; 308.15 K, x2 = 0.8",928.3 ± 1.9 kg/m3
same,mass density,"[1]; 308.15 K, x2 = 0.9",917.8 ± 1.9 kg/m3
same,viscosity,"[1]; 318.15 K, x2 = 0",0.945 ± 0.02 mPa·s
same,viscosity,"[1]; 318.15 K, x2 = 0.1",1.002 ± 0.022 mPa·s
same,viscosity,"[1]; 318.15 K, x2 = 0.2",1.157 ± 0.025 mPa·s
same,viscosity,"[1]; 318.15 K, x2 = 0.3",1.312 ± 0.029 mPa·s
same,viscosity,"[1]; 318.15 K, x2 = 0.4",1.394 ± 0.03 mPa·s
same,viscosity,"[1]; 318.15 K, x2 = 0.5",1.429 ± 0.031 mPa·s
same,viscosity,"[1]; 318.15 K, x2 = 0.6",1.432 ± 0.031 mPa·s
same,viscosity,"[1]; 318.15 K, x2 = 0.7",1.361 ± 0.03 mPa·s
same,viscosity,"[1]; 318.15 K, x2 = 0.8",1.258 ± 0.027 mPa·s
same,viscosity,"[1]; 318.15 K, x2 = 0.9",1.165 ± 0.025 mPa·s
same,mass density,"[1]; 318.15 K, x2 = 0",989.2 ± 2 kg/m3
same,mass density,"[1]; 318.15 K, x2 = 0.1",982.4 ± 2 kg/m3
same,mass density,"[1]; 318.15 K, x2 = 0.2",974.2 ± 2 kg/m3
same,mass density,"[1]; 318.15 K, x2 = 0.3",966.1 ± 2 kg/m3
same,mass density,"[1]; 318.15 K, x2 = 0.4",957.5 ± 2 kg/m3
same,mass density,"[1]; 318.15 K, x2 = 0.5",948.9 ± 1.9 kg/m3
same,mass density,"[1]; 318.15 K, x2 = 0.6",940.2 ± 1.9 kg/m3
same,mass density,"[1]; 318.15 K, x2 = 0.7",930.3 ± 1.9 kg/m3
same,mass density,"[1]; 318.15 K, x2 = 0.8",919.9 ± 1.9 kg/m3
same,mass density,"[1]; 318.15 K, x2 = 0.9",909.1 ± 1.9 kg/m3
C=C(C)C(=O)OCc1ccccc1 [benzyl methacrylate],viscosity,[2]; 298.15 K,2.302 ± 0.054 mPa·s
same,mass density,[2]; 298.15 K,1034.7 ± 2.3 kg/m3
same,viscosity,[2]; 308.15 K,1.885 ± 0.044 mPa·s
same,mass density,[2]; 308.15 K,1025.8 ± 2.3 kg/m3
same,viscosity,[2]; 318.15 K,1.58 ± 0.037 mPa·s
same,mass density,[2]; 318.15 K,1017 ± 2.3 kg/m3
C=C(C)C(=O)OCc1ccccc1 [benzyl methacrylate] + COCC(C)O,viscosity,"[1]; 298.15 K, x2 = 0",2.302 ± 0.054 mPa·s
same,viscosity,"[1]; 298.15 K, x2 = 0.1",2.194 ± 0.051 mPa·s
same,viscosity,"[1]; 298.15 K, x2 = 0.2",2.09 ± 0.048 mPa·s
same,viscosity,"[1]; 298.15 K, x2 = 0.3",1.99 ± 0.045 mPa·s
same,viscosity,"[1]; 298.15 K, x2 = 0.4",1.895 ± 0.043 mPa·s
same,viscosity,"[1]; 298.15 K, x2 = 0.5",1.8 ± 0.04 mPa·s
same,viscosity,"[1]; 298.15 K, x2 = 0.6",1.731 ± 0.038 mPa·s
same,viscosity,"[1]; 298.15 K, x2 = 0.7",1.677 ± 0.037 mPa·s
same,viscosity,"[1]; 298.15 K, x2 = 0.8",1.633 ± 0.036 mPa·s
same,viscosity,"[1]; 298.15 K, x2 = 0.9",1.64 ± 0.036 mPa·s
same,mass density,"[1]; 298.15 K, x2 = 0",1034.7 ± 2.3 kg/m3
same,mass density,"[1]; 298.15 K, x2 = 0.1",1026.8 ± 2.3 kg/m3
same,mass density,"[1]; 298.15 K, x2 = 0.2",1018.6 ± 2.2 kg/m3
same,mass density,"[1]; 298.15 K, x2 = 0.3",1009.8 ± 2.2 kg/m3
same,mass density,"[1]; 298.15 K, x2 = 0.4",1000.2 ± 2.1 kg/m3
same,mass density,"[1]; 298.15 K, x2 = 0.5",989.7 ± 2.1 kg/m3
same,mass density,"[1]; 298.15 K, x2 = 0.6",978.1 ± 2 kg/m3
same,mass density,"[1]; 298.15 K, x2 = 0.7",965.2 ± 2 kg/m3
same,mass density,"[1]; 298.15 K, x2 = 0.8",950.9 ± 2 kg/m3
same,mass density,"[1]; 298.15 K, x2 = 0.9",934.6 ± 1.9 kg/m3
same,viscosity,"[1]; 308.15 K, x2 = 0",1.885 ± 0.044 mPa·s
same,viscosity,"[1]; 308.15 K, x2 = 0.1",1.806 ± 0.042 mPa·s
same,viscosity,"[1]; 308.15 K, x2 = 0.2",1.716 ± 0.039 mPa·s
same,viscosity,"[1]; 308.15 K, x2 = 0.3",1.628 ± 0.037 mPa·s
same,viscosity,"[1]; 308.15 K, x2 = 0.4",1.538 ± 0.035 mPa·s
same,viscosity,"[1]; 308.15 K, x2 = 0.5",1.465 ± 0.033 mPa·s
same,viscosity,"[1]; 308.15 K, x2 = 0.6",1.406 ± 0.031 mPa·s
same,viscosity,"[1]; 308.15 K, x2 = 0.7",1.354 ± 0.03 mPa·s
same,viscosity,"[1]; 308.15 K, x2 = 0.8",1.312 ± 0.029 mPa·s
same,viscosity,"[1]; 308.15 K, x2 = 0.9",1.308 ± 0.029 mPa·s
same,mass density,"[1]; 308.15 K, x2 = 0",1025.8 ± 2.3 kg/m3
same,mass density,"[1]; 308.15 K, x2 = 0.1",1018.1 ± 2.2 kg/m3
same,mass density,"[1]; 308.15 K, x2 = 0.2",1010.1 ± 2.2 kg/m3
same,mass density,"[1]; 308.15 K, x2 = 0.3",1001.4 ± 2.1 kg/m3
same,mass density,"[1]; 308.15 K, x2 = 0.4",991.8 ± 2.1 kg/m3
same,mass density,"[1]; 308.15 K, x2 = 0.5",981.3 ± 2.1 kg/m3
same,mass density,"[1]; 308.15 K, x2 = 0.6",969.7 ± 2 kg/m3
same,mass density,"[1]; 308.15 K, x2 = 0.7",956.8 ± 2 kg/m3
same,mass density,"[1]; 308.15 K, x2 = 0.8",942.3 ± 1.9 kg/m3
same,mass density,"[1]; 308.15 K, x2 = 0.9",925.9 ± 1.9 kg/m3
same,viscosity,"[1]; 318.15 K, x2 = 0",1.58 ± 0.037 mPa·s
same,viscosity,"[1]; 318.15 K, x2 = 0.1",1.52 ± 0.035 mPa·s
same,viscosity,"[1]; 318.15 K, x2 = 0.2",1.441 ± 0.033 mPa·s
same,viscosity,"[1]; 318.15 K, x2 = 0.3",1.364 ± 0.031 mPa·s
same,viscosity,"[1]; 318.15 K, x2 = 0.4",1.291 ± 0.029 mPa·s
same,viscosity,"[1]; 318.15 K, x2 = 0.5",1.228 ± 0.028 mPa·s
same,viscosity,"[1]; 318.15 K, x2 = 0.6",1.166 ± 0.026 mPa·s
same,viscosity,"[1]; 318.15 K, x2 = 0.7",1.115 ± 0.025 mPa·s
same,viscosity,"[1]; 318.15 K, x2 = 0.8",1.084 ± 0.024 mPa·s
same,viscosity,"[1]; 318.15 K, x2 = 0.9",1.077 ± 0.024 mPa·s
same,mass density,"[1]; 318.15 K, x2 = 0",1017 ± 2.3 kg/m3
same,mass density,"[1]; 318.15 K, x2 = 0.1",1009.5 ± 2.2 kg/m3
same,mass density,"[1]; 318.15 K, x2 = 0.2",1001.4 ± 2.2 kg/m3
same,mass density,"[1]; 318.15 K, x2 = 0.3",992.5 ± 2.1 kg/m3
same,mass density,"[1]; 318.15 K, x2 = 0.4",982.8 ± 2.1 kg/m3
same,mass density,"[1]; 318.15 K, x2 = 0.5",972.2 ± 2.1 kg/m3
same,mass density,"[1]; 318.15 K, x2 = 0.6",960.5 ± 2 kg/m3
same,mass density,"[1]; 318.15 K, x2 = 0.7",947.5 ± 2 kg/m3
same,mass density,"[1]; 318.15 K, x2 = 0.8",932.7 ± 1.9 kg/m3
same,mass density,"[1]; 318.15 K, x2 = 0.9",916 ± 1.9 kg/m3
